What all share (assay): growth of human tumour cells (NCI), 48 h
The test system of test [1] is CAKI-1 renal.
Test [2] has as its system NCI/ADR-RES ovarian.
In test [3] the test system is T-47D breast.
Test [4] relates to PC-3 prostate.
The test system of test [5] is SF-295 CNS.
The subject of test [6] is ACHN renal.
For test [7], the system named is M14 melanoma.
In test [8] the test system is MALME-3M melanoma.
Test [9] relates to DU-145 prostate.
Test [10] relates to K-562 leukemia.

SMILES strings stand for the structures. Several values for one entry are separate records, joined by “and”; a condition that tells them apart may be missing. Identical values can stand only once.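 Following 48 hours of exposure in 96-well plates, responses at five concentrations were used to interpolate endpoints linearly. At the GI50, growth is halved. TGI: total growth inhibition.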

Among the data in PubChem BioAssay (NCI) are GI50 and TGI values, retold here.

In the case of `CCCCCCCCCCCCn1c(C)nc2ccccc21`, the GI50 in test [1] was 14 µM; in test [2], 2.55 µM; in [3], 0.325 µM; in test [4] it was 2.47 µM; in [5], 8.87 µM; in test [6], 13.2 µM. In addition, the GI50 in [7] is 13.7 µM; in test [8] it was 16.2 µM; in test [9], 17.2 µM; in test [10], 1.11 µM. The TGI in test [1] stood at 31.2 µM; in test [2], 12.9 µM; in [3], 19.1 µM; in test [4], 15.8 µM; in test [5], 26.6 µM; in [6], 26.5 µM. The TGI was determined as 26.6 µM in test [7], 33.6 µM in test [8], 35.4 µM in test [9] and 16.4 µM in test [10].
For `COc1ccc2c(c1)CCC1C2CC[C@@]2(C)C1CC[C@@]2(O)CNC(=O)/C=C/c1ccc(O)c(OC)c1` (stereo partly specified), the GI50 in [1] was 21.9 µM; in test [2] it was 12.5 µM; in test [3] it was 9.12 µM; in test [4], 12.1 µM; in [5] it was 28.4 µM; in test [6], 17.5 µM. Further, the GI50 in test [7] was 15.8 µM; in test [8] it was 21.3 µM; in test [9], 36.6 µM; in [10], 12.3 µM. Also, the TGI in test [1] was over 100 µM; in [2], 83.4 µM; in test [3] it was over 100 µM; in test [4], 83.8 µM; in test [5] it was over 100 µM; in test [6], 46.7 µM. Further, the TGI is 53 µM in test [7], over 100 µM in [8], over 100 µM in test [9] and over 100 µM in test [10].
In the case of `COC(=O)c1c[nH]c(=O)[nH]c1=O`, the TGI in [1], in [2], in [3], in [4], in [5] and in test [6] was over 100 µM each time. In addition, the TGI in test [7], in test [9] and in [10] was over 100 µM throughout.
As for `COc1ccc(-c2oc(=O)ccc2C#Cc2cc(OC)c(OC)c(OC)c2)cc1O`, the GI50 was 32.8 µM in test [1]; 24.4 µM in test [2]; 30.7 µM in [3]; 23.3 µM in [4]; 12.8 µM in [5]; 11.6 µM in [6]. Moreover, the GI50 was 26.9 µM in test [7], 71.8 µM in test [8], 38.6 µM in test [9] and 13.8 µM in test [10]. The TGI in [1] was over 100 µM; in test [2], over 100 µM; in test [3] it was over 100 µM; in [4], over 100 µM; in test [5] it was 75.4 µM; in test [6], 44.3 µM. Also, the TGI in test [7], in test [8], in [9] and in test [10] was over 100 µM each time.
In the case of `O=C(c1ccccc1)C1C(C(=O)c2ccccc2)N1Cc1ccccc1` (stereo unspecified), the TGI in test [1] is over 100 µM; in test [2], over 100 µM; in test [3], 49.8 µM; in test [4], over 100 µM; in [5] it was over 100 µM; in test [6] it was over 100 µM. In addition, the TGI is over 100 µM in [7], 77.3 µM in test [8], 85.8 µM in test [9] and over 100 µM in [10].
For the compound `Cc1ccc(Cl)cc1Nc1nc(C(F)(F)F)ccc1C(=O)Nc1cccc(C(F)(F)F)c1`, the GI50 in test [1] is 4.14 µM; in [2], 2.13 µM; in test [3], 2.23 µM; in [4], 2.07 µM; in test [5], 3.65 µM; in test [6], 2.95 µM. Further, the GI50 in test [7] was 2.99 µM; in test [8], 3.04 µM; in [9] it was 4.76 µM; in test [10], 3.59 µM. The TGI in test [1] was found to be 18.1 µM; in test [2], 7.66 µM; in [3], 8.95 µM; in [4] it was 13.4 µM; in test [5], 18.4 µM; in test [6], 12.8 µM. Besides, the TGI in [7] is 10.3 µM; in test [8], 12.4 µM; in [9], 16.6 µM; in test [10], over 100 µM.
With `O=C(/C=C/c1ccc(C(F)(F)F)cc1)c1ccc(Nc2nc(NCCO)nc(NCCO)n2)cc1`, the GI50 in test [2] is 15.2 µM; in [3] it was 2.51 µM; in [4] it was 3.29 µM; in test [5] it was 3.2 µM; in [6] it was 4.38 µM; in [7] it was 3.96 µM. In addition, the results for the GI50 in test [8], in [9] and in [10] were 4.95 µM, 4.03 µM and 2.84 µM, respectively. The TGI in test [2] came to 35 µM; in [3], 11.8 µM; in [4], 13.1 µM; in test [5], 13 µM; in test [6] it was 15.6 µM; in [7] it was 17.1 µM. For the same compound, the TGI in test [8] worked out at 18.8 µM; in test [9], 14.3 µM; in test [10] it was 8.89 µM.
Turning to `C(=N\Nc1nnc2c(n1)[nH]c1ccccc12)/c1cccnc1`, the TGI in [1], in [2], in test [3], in [4], in test [5] and in test [6] was over 100 µM in each case. Besides, the TGI in [7] was 46.2 µM; in test [8], over 100 µM; in test [9], over 100 µM; in test [10], over 100 µM.
On to `CN(C)c1ccc(/C=C2\C[C@H]3[C@@H]4CC=C5C[C@@H](N6CCCC6)CC[C@]5(C)[C@H]4CC[C@]3(C)[C@H]2O)cc1`, for which the GI50 in test [1] is 1.99 µM; in test [2] it was 4.01 µM; in test [3] it was 2.33 µM; in [4], 2.82 µM; in test [5] it was 8.18 µM; in test [6], 1.82 µM. For the same compound, the GI50 is 1.8 µM in [7], 2.55 µM in test [8], 13.7 µM in test [9] and 2.36 µM in [10]. For the same compound, the TGI in test [1] is 3.88 µM and 23.9 µM; in test [2] it was 6.19 µM and 19.9 µM; in [3], 2.33 µM and 6.03 µM; in [4] it was 50 µM and 12 µM; in [5], 2.99 µM and 23.1 µM; in test [6] it was 1.71 µM and 3.34 µM. Further, the TGI in test [7] is 1.45 µM and 3.63 µM; in [8], 1.69 µM and 8.35 µM; in test [9], 13.7 µM and > 100 µM.
With `Cn1c2ccccc2c(=Nc2ccccc2)c2c3ccccc3[nH]c21`, the GI50 in test [1] was 0.78 µM; in test [2], 6.75 µM; in test [3], 3.91 µM; in [4] it was 1.69 µM; in test [5], 1.03 µM; in test [6], 0.755 µM. Besides, the GI50 in [7] was 1.65 µM; in [8] it was 0.345 µM; in [9] it was 1.74 µM; in test [10] it was 1.84 µM. For the same compound, the TGI was 2.05 µM in test [1]; 61.2 µM in test [2]; over 100 µM in test [3]; 6.2 µM in [4]; 2.22 µM in [5]; 1.99 µM in test [6]. The TGI turned out to be 3.02 µM in test [7], 1.8 µM in [8], 4.36 µM in test [9] and 15.7 µM in test [10].
As to `O=P(Oc1ccc(Cl)cc1)(Oc1ccc(Cl)cc1)N1CC1`, the TGI in test [2], in test [3], in [4], in [5], in test [6] and in test [7] was over 10 µM in each case. Further, the TGI in [8], in test [9] and in [10] was over 10 µM each time.
For `NC(=O)CCC(NC(=O)OCc1ccccc1)C(=O)OCC(=O)c1ccccc1` (stereo unspecified), the GI50 in test [1], in test [2], in test [3], in test [4], in test [5] and in test [6] was over 100 µM each time. In addition, the GI50 in [8], in test [9] and in test [10] was over 100 µM throughout. The TGI in test [1], in [2], in [3], in [4], in test [5] and in test [6] was over 100 µM in each case. Moreover, the TGI in test [8], in [9] and in [10] was over 100 µM each time.
In the case of `O=NC1c2cccc3cccc(c23)C1N=O` (stereo unspecified), the TGI is 10.8 µM in test [1]; 7.21 µM in test [2]; over 100 µM in test [3]; 25.4 µM in test [4]; 24.8 µM in [5]; 3.9 µM in test [6]. Moreover, the TGI is 27.3 µM in test [7], over 100 µM in [9] and 11.7 µM in test [10].
`O=[N+]([O-])c1cccc([N+](=O)[O-])c1S(=O)(=O)c1ccccc1`: the TGI was 3.76 µM in test [1]; 31.4 µM in test [2]; 4.8 µM in test [3]; 32.3 µM in test [4]; 31.8 µM in test [5]; 3.92 µM in [6]. Further, the TGI in test [7] was 6.59 µM; in test [8], 6.19 µM; in [9], 20 µM.
`C=C(CN1CCN(c2ccccc2OC)CC1)c1ccc(C(=O)Nc2ccccc2N)cc1`: the GI50 in test [1] was 3.86 µM; in test [2], 0.143 µM; in [3], 10.8 µM; in test [4] it was 9.64 µM; in test [5], 4.11 µM; in [6], 0.856 µM. For the same compound, the GI50 was 12.1 µM in [7], 3.8 µM in [9] and over 50 µM in test [10]. The TGI was 14.3 µM in [1]; 1.56 µM in test [2]; 45.2 µM in test [3]; over 50 µM in [4]; 15.4 µM in test [5]; 4.95 µM in test [6]. For the same compound, the results for the TGI in [7], in test [9] and in [10] were over 50 µM, 39.5 µM and over 50 µM, respectively.
Consider `CC(CN=C(CC(=O)c1ccc(Br)cc1)c1ccccc1)N=C(CC(=O)c1ccc(Br)cc1)c1ccccc1` (stereo unspecified), for which the GI50 in test [1] was 67.1 µM; in [2], 14.2 µM; in test [3], 3.09 µM; in test [4], 29.4 µM; in test [5], 29.2 µM; in test [6], 48 µM. Also, the GI50 in test [8] was 23.3 µM; in [9] it was 64.4 µM; in test [10], over 100 µM. Besides, the TGI in test [1], in [2], in test [3], in [4], in [5] and in test [6] was over 100 µM each time. Moreover, the TGI in test [8], in [9] and in test [10] was over 100 µM each time.
In the case of `O=C1c2ccccc2C(=O)c2c1ccc(C(Br)Br)c2[N+](=O)[O-]`, the GI50 in test [2] is 2.01 µM; in [3], 1.63 µM; in [4], 1.74 µM; in [5], 3.7 µM; in test [6], 1.53 µM; in [7] it was 1.97 µM. The GI50 in test [8] was 1.94 µM; in test [9], 1.98 µM. The TGI in test [2] came to 6.56 µM; in test [3] it was 3.89 µM; in test [4], 3.47 µM; in test [5] it was 15.7 µM; in test [6] it was 2.86 µM; in test [7], 3.94 µM. Also, the TGI was determined as 3.71 µM in test [8] and 4.01 µM in test [9].
`Cl.[Pt].[c-]1ccccc1-c1ccccn1.c1ccc(P(c2ccccc2)C([PH+](c2ccccc2)c2ccccc2)[PH+](c2ccccc2)c2ccccc2)cc1`: the GI50 in test [1] is 1.81 µM; in [2], 5.21 µM; in test [3] it was 0.916 µM; in test [4] it was 0.683 µM; in [5], 2.48 µM; in [6] it was 1.84 µM. For the same compound, the GI50 in test [8] is 0.42 µM; in [9], 1.9 µM; in test [10], 0.658 µM. In addition, the TGI in test [1] turned out to be 13.1 µM; in test [2], 76.5 µM; in test [3], 19.5 µM; in test [4], 15.3 µM; in test [5] it was 12.4 µM; in test [6], 11.5 µM. In addition, the TGI in test [8] is 2.65 µM; in test [9], 16.4 µM; in [10], 13.6 µM.
